Measured values as given in patent US8304418B2, “Pyrazolopyrimidinone kinase inhibitor” (Agennix AG, priority 2007, dated 2012).
Converted amounts (≈) assume the structure as drawn. “And” between values parts separate entries of the source, which are not always exact repeats. Equal entries are not always repeated. Where two headings read alike, the source gives them in different places.

How the values were obtained:
[1] = test system: human A2780 ovarian tumor cells
Description: Xenograft Tumor-Models: 100 athymic nu/nu female mice (6-8 weeks old) from CRL were allowed to acclimate for 4 days. […] The 3rd passage of cells with approximate 90% confluence was used for these experiments. Briefly, on Day 0, mice were inoculated with 0.1 ml (total 5×10^6 cells) of the respective cell-type as a cell suspension (50×10^6 cells/ml) by subcutaneous injection into the fat pad area near the mammary gland under light anesthesia. When the average tumor weight in all mice reached over 100 mg (day 10), 80 animals with an average tumor size of 130 mg were selected and were randomly divided into 8 groups.
A 20 G gavage needle was used for the oral treatment.
Tumor growth and body weight were monitored and recorded three times a week. Tumors were measured by determining the length and width of the tumor with a digital caliper. Tumor weight was estimated using the following formula: Tumor Weight (mg)=(w^2×1)×0.52 where w=width and l=length in mm of the tumor.
Experimental treatment may cause partial regression (PR) or complete regression (CR) of tumors. PR is defined when the tumor size is 50% or less than the starting (day 1) size but greater than 0.0 mg for three consecutive measurements during the course of the study. CR occurs when there is no measurable tumor mass for three consecutive measurements. Cures are defined when CR are maintained until the completion of the experiment.
Mice were sacrificed when their tumors reached the 1000 mm^3 endpoint volume. Treatment efficacy was determined as Log Cell Kill (LCK).
Toxic deaths are defined as deaths caused by compound treatment and not by advanced disease state. […] Non-tumor related deaths after this point are recorded, but not considered toxic deaths.
Briefly, the empirical distributions of T and Td were derived from B=1000 realisations of random selection of n individual animals with replacement from the set i=1, . . . , n of the appropriate group of mice containing n evaluable animals, estimating the mean tumor size for such selection of animals for each time-point, and linear regression analysis from a semi-log plot of such averages against time. Dead mice and mice with no measurable tumor size were treated as missing data and were ignored when calculating the average.

[2] = PAMPA permeability assay at pH 7.4; assay type: in vitro ADME
Description: (§1) The assays used for determining the properties of the kinase inhibitors were performed in accordance with standard procedures well known to those skilled in the art. For example, assays for determining inhibitory activity on CDKs or in cellular assays are described in WO 00/218962, WO 2005/026129, and WO 2005/063765. Solubility assays at pH 7.4 were essentially performed as described by Avdeef, A. in Pharmacokinetic Optimization in Drug Research; Testa, B.; van de Waterbeemd, H.; Folkers, G.; Guy, R. Eds.; Wiley-VHC: Zurich, 2001; pp 305-326. PAMPA permeability assays at pH 7.4 were essentially performed as described in Kansy et al., J. Med. Chem. 41: 1007-10, 1998.

CDK4 = CDK4 (Homo sapiens, UniProt P11802); experiment: Biochemical CDK4 inhibition assay
Chain of CDK4 (P11802 whole entry): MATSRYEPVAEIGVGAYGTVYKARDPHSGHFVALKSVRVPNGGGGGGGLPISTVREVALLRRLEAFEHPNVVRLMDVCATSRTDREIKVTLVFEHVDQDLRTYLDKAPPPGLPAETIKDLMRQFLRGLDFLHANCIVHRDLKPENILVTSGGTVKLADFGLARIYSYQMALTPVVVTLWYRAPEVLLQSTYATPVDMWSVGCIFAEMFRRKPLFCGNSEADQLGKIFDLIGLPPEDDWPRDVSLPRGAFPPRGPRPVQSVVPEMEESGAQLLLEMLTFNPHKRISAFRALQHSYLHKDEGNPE
Chain of CDK4 (P24385 whole entry partner): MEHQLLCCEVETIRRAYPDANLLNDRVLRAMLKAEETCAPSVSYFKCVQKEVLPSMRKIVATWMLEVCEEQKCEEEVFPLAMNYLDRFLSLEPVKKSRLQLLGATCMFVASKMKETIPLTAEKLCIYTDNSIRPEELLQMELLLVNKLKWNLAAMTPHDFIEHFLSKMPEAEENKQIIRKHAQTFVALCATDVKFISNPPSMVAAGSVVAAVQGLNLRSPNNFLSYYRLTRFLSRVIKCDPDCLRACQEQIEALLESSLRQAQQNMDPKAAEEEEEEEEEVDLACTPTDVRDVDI
Description: as §1

[3] = Solubility assay at pH 7.4; assay type: physicochemical; conditions: pH 7.4, aqueous buffer
Description: as §1

[4] = test system: CDK9-specific phosphorylation of RNA polymerase II (RNAPII) on serine 2; experiment: In-cell RNAPII phosphorylation (immunoblot); assay type: cell-based, human; conditions: Homo sapiens, 3 h
Description: The following cancer cell lines were investigated in the course of these studies: A2780 (ovarian), HCT116 (colon), RPMI8226 (myeloma), SKMel28 (melanoma), Colo205 (colorectal), MDA-MB-435 (melanoma), MDA-MB-453 (breast, carcinoma), MDA-MB-468 (breast, adenocarcinoma), A549 (lung), Raji (lymphoma, Burkitt). Cell lines were obtained from public repositories.
CDK9-specific phosphorylation of RNA polymerase II (RNAPII) on Serine 2 (Ser2). Asynchronous cells were treated with an appropriate concentration of test compound or DMSO as a control. After 3 h incubation (37° C./5% CO2) cells were lysed with CLB-1 lysis buffer (Zeptosense, Switzerland), the lysate was cleared by centrifugation (10 min, 13000 rpm, RT) and subjected to SDS-PAGE. Total protein was blotted on PVDF membranes and analyzed using antibodies against S2-phosphorylated RNAPII (H5; Covance) or total RNAPII (N-20; Santa Cruz) as an expression control. Visualization was conducted using secondary Alexa680- or IR800-coupled antibodies (Molecular Probes) against mouse or rabbit Fc tails on the Odyssey-system (Licor). Specific bands were quantified and IC50 values of inhibition of RNAPII phosphorylation were estimated.

CDK1 = CDK1 (Homo sapiens, UniProt P06493); experiment: Biochemical CDK1 inhibition assay
Chain of CDK1 (P06493 whole entry): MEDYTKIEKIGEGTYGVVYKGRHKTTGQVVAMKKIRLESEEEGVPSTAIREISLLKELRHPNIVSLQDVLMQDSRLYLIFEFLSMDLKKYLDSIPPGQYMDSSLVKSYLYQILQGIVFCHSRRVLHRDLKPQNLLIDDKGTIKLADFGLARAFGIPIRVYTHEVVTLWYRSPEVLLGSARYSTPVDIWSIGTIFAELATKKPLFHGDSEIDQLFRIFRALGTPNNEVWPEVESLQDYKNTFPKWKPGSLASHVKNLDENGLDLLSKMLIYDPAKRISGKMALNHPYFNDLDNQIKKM
Chain of CDK1 (P14635 whole entry partner): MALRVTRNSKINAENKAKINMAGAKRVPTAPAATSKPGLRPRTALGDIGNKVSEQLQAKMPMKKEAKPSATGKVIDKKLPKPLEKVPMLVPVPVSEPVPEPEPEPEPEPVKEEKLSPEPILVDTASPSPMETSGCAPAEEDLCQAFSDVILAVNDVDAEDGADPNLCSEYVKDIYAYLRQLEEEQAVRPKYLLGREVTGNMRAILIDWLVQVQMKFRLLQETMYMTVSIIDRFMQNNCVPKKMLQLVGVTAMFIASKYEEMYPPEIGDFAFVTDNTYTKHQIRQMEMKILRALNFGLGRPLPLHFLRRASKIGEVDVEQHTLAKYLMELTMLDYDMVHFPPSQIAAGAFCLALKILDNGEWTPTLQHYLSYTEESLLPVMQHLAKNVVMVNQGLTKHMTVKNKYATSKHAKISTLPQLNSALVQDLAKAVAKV
Description: as §1

## CC(C)c1nn(-c2c(Cl)cncc2Cl)c2nc(Cc3ccc(CN4CCCC4)c(O)c3)[nH]c(=O)c12 [Compound I, 1-(3,5-dichloropyridin-4-yl)-6-(3-hydroxy-4-pyrrolidinomethyl-phenyl)methyl-3-isopropyl-pyrazolo[3,4-d]pyrimidin-4-one]
[1]; 32 [30] mg/kg po qdx10
  LCK ± CI (95%) (Td: 1.7 d): 0.44 ± 0.24 and 0.44
[1]; 32 [30] mg/kg po qdx10, N=10
  Toxic Mortality: 0
[1]; 32 [30] mg/kg po qdx10, day 11
  Max % TGI (d): 52.2 (11) %
[1]; 63 [59] mg/kg po qdx10
  LCK ± CI (95%) (Td: 1.7 d): 0.93 ± 0.39 and 0.93
[1]; 63 [59] mg/kg po qdx10, N=10
  Toxic Mortality: 0
[1]; 63 [59] mg/kg po qdx10, day 11
  Max % TGI (d): 67.3 (11) %
[1]; 95 [89] mg/kg po qdx7
  LCK ± CI (95%) (Td: 1.7 d): 2.16 ± 0.44 and 2.16
  Toxic Mortality: 1/10
[1]; 95 [89] mg/kg po qdx7, day 11
  Max % TGI (d): 86.2 (11) %
[2]
  permeability in a PAMPA assay: about 70%
CDK4
  IC50: ~50 nM
[3]
  solubility: ~390 µM (≈ 200 µg/mL)
[4]; COLO 205, Colo205 cells
  IC50: ~0.1 µM
[4]; HCT-116, HCT116 cells
  IC50: ~0.1 µM
[4]; RPMI-8226, RPMI8226 cells
  IC50: ~0.1 µM
[4]; A2780 cells
  IC50: ~0.1 µM
[4]; MDA-MB-468 cells
  IC50: ~0.1 µM
[4]; Sk-mel-28 cells
  IC50: ~0.1 µM
CDK1
  IC50: 10 to 50 nM
